For data set [1], the system named is MCA205 sarcoma cells expressing the globin-SL8-intron construct. Nature of the data set: Tumor challenge: MCA205 globin-SL8-intron tumors in immunocompetent C57BL/6 mice. The class given is in vivo, mouse. The following applies: for survivors: 120 days after tumor inoculation. How it is done: (§1) Wild type MCA205 sarcoma cells or MCA205 sarcoma cells expressing the globin-SL8-intron construct (MCA205 globin-SL8-intron) were subcutaneously inoculated into the flank of immunocompetent C57BL/6 mice subsequently injected intraperitoneally with 20 mg/kg or 40 mg/kg of Madra.HCl at day 4, 7, 10 and 14 post tumor inoculation. Tumor size was assessed every 3 to 4 days until the established ethical endpoints were reached. The panel C represents the growth curve of MCA205 sarcoma cells expressing the globin-SL8-intron construct (MCA205 globin-SL8-intron), the panel D represents the tumor size at day 25. The panel E represents the growth curve of Wild type MCA205 sarcoma cells (MCA205 WT), the panel F represents the tumor size at day 21. Data are given as mean±SEM. *p<0.05, **p<0.01 (ANOVA with Tukey's multiple comparison test comparing all groups).
(§2) Wild type MCA205 sarcoma cells or MCA205 sarcoma cells expressing the globin-SL8-intron construct (MCA205 globin-SL8-intron) were subcutaneously inoculated into the flank of immunocompetent C57BL/6 mice subsequently injected intraperitoneally with 20 mg/kg of EYP59 at day 4, 7, 10 and 14 post tumor inoculation. Tumor size was assessed every 3 to 4 days until the established ethical endpoints were reached (A). The upper panel B represents the growth curve of MCA205 sarcoma cells expressing the globin-SL8-intron construct (MCA205 globin-SL8-intron), the lower panel B represents the tumor size at day 23. The upper panel C represents the growth curve of Wild type MCA205 sarcoma cells (MCA205 WT), the lower panel C represents the tumor size at day 19. The panel D represents the growth curve of Wild type MCA205 sarcoma cells (MCA205 WT) in immunodeficient nu/nu mice with the same settings as previously described for the immunocompetent mice. Data are given as mean±SEM. *p<0.05, **p<0.01 (ANOVA with Tukey's multiple comparison test comparing all groups).
(§3) C57Bl/6J female mice are obtained from Harlan Laboratories Ltd, Switzerland. 7 week-old mice are injected subcutaneously into the right flank with 1.10^5 MCA205 sarcoma or B16F10 melanoma cells or 1.5.10^5 MCA205 globin-SL8-intron or B16F10 globin-SL8-intron cells. Sarcoma cells are injected in 100 μL sterile PBS while melanoma cells are injected in 50:50 PBS:Matrigel to prevent tumor cell dissemination. Madra.HCl is injected 4, 7, 10 and 14 days post tumor inoculation, in 100 μL H2O+[…] (2-Hydroxypropyl)-β-cyclodextrin (w/v). In the same manner EYP59 (compound 7) is injected 4, 7, 10 and 14 days post tumor inoculation, in 100 μL H2O. Area of the tumor is recorded every 3 to 4 days until the tumor reaches the ethical end points. […] Results are expressed as mean±SEM. *p<0.05, **P<0.01, ***P<0.001 (ANOVA with Tukey's multiple comparison test comparing all groups).

Data set [2] deals with MCA205 sarcoma cells expressing the intron-derived SL8 antigen. Nature of the data set: T-cell assay: B3Z specific T-cell activation by MCA205 cells expressing the intron-derived SL8 antigen. The class given is cell-based, mouse. The settings on record: for PTPs-dependent antigen presentation (B3Z T-cell activation): MCA205, 5 μM or 10 μM. As for the experimental part: (§4) MCA205 mouse sarcoma cell line is cultured at 37° C. under 5% CO2 in RPMI 1640 medium (Life Technologies) in the presence of 1% glutamine, 1% sodium pyruvate, 1% non-essential amino-acids, 1% penicillin/streptomycin and 10% FBS (Life Technologies). B16F10 mouse melanoma cell line is cultured at 37° C. under 5% CO2 in DMEM medium (Life Technologies) containing 1% glutamine, 1% penicillin/streptomycin and 10% FCS under standard conditions. Stable MCA205-Globin-SL8-intron cell line are cultured under the same condition as MCA205 cell line with additional 500 μg/ml G418 (Life Technologies) for selection. Stable B16F10-Globin-SL8-intron cell line are cultured under the same condition as B16F10 cell line with additional 500 μg/ml G418 (Life Technologies) for selection. The SL8/Kb-specific (B3Z) T-cell reporter hybridoma are cultured at 37° C. under 5% CO2 in RPMI 1640 medium (Life Technologies) in the presence of 1% L-glutamine, 1% penicillin/streptomycin, 50 μM β-mercaptoéthanol and 10% FCS.
(§5) MCA205 and B16F10 mouse cell lines are transfected with the plasmid YFP-Globin-SL8-intron or with the PCDNA3 empty plasmid (negative control) with the transfection reagent jetPRIME (Ozyme) or GeneJuice (Millipore) respectively according to each manufacturer protocol. Twenty-four hours after transfection, cells are treated with different doses of Madrasin (Sigma SML 1409), Madra.HCl (3·HCl) or the different compounds herein cited. Cells are then washed three times with PBS 1× and 5.10^4 tumor cells are co-cultured with 1.10^5 B3Z hybridoma in a 96-well plate. In positive control wells, 4 μg/ml of synthetic peptide SL8 is added. Cells are then incubated overnight at 37° C. with 5% CO2. The plate is centrifuged at 1200 rpm for 5 min, cells are washed twice with PBS 1× and lysed for 5 min at 4° C. under shaking in 0.2% TritonX-100, 0.2% DTT, 0.5M K2HPO4, 0.5M KH2PO4. The lysate is centrifuged at 3000 rpm for 10 min and the supernatant is transferred to a 96-well optiplate (OptiPlaque-96, PerkinElmer). A revelation buffer containing 10 mM MgCl2, 11.2 mM β-mercaptoethanol, 0.0015% IGEPAL® CA-630 and 40 μM 4-Methylumbelliferyl β-D-Galactopyranoside (MUG) in PBS is added and the plate is incubated at room temperature for 3 hours. Finally, the β-galactosidase activity is measured using the FLUOstar OPTIMA (BMG LABTECH Gmbh, 30 Offenburg, Germany). Results are expressed as mean±SEM. *P<0.05, **P<0.01, ***P<0.001 (unpaired student t test).

Data set [3] deals with B16F10 melanoma cells expressing the intron-derived SL8 antigen. In words: T-cell assay: B3Z specific T-cell activation by B16F10 cells expressing the intron-derived SL8 antigen. The data set is classed as cell-based, mouse. The following applies: for PTPs-dependent antigen presentation (B3Z T-cell activation): B16F10, 5 μM or 10 μM. As for the experimental part: as §4, §5

Data set [4] relates to Wild type MCA205 sarcoma cells. Nature of the data set: Tumor challenge: wild type MCA205 tumors in immunocompetent C57BL/6 mice. The data set is classed as in vivo, mouse. As for the experimental part:
as §1, §2
Wild type MCA205 sarcoma cells were subcutaneously inoculated into the flank of immunocompetent C57BL/6 mice subsequently injected intratumorally with 2.5 mg/kg of EYP59 at day 4, 7, 10 and 14 post tumor inoculation or intravenously with 5 mg/kg of EYP59 at day 4, 7, 10 and 14 post tumor inoculation. The upper panel A represents the growth curve of wild type MCA205 sarcoma cells, the lower panel A represents the tumor size at day 21. The upper panel B represents the growth curve of wild type MCA205 sarcoma cell, the lower panel B represents the tumor size at day 25. Data are given as mean±SEM. *p<0.05, **p<0.01 (ANOVA with Tukey's multiple comparison test comparing all groups).
as §3

The subject of data set [5] is Wild type MCA205 sarcoma cells. In words: Tumor challenge: wild type MCA205 tumors in immunodeficient nu/nu mice. The settings on record: 20 mg/kg. The data set is classed as in vivo, mouse. As for the experimental part:
as §2
In order to assess the requirement of the immune response for this effect, inventors tested the impact of 20 mg/kg EYP59 treatment in immunodeficient nu/nu mice with the same settings as previously described and observed that it has no effect on the tumor growth (FIG. 7D).

The nature of a further data set: Solubility in water. The class given is physicochemical.
The target in a further data set is SF3B1 (Homo sapiens, UniProt O75533+Q7RTV0). The following applies: cited from earlier work.
For data set [6], the system named is MCA205 globin-SL8-intron cells. Nature of the data set: Re-challenge of tumor-free mice at day 100 with MCA205 globin-SL8-intron cells. The settings on record: mice with complete tumor regression after treatment, re-challenged 100 days later, right flank. The class given is in vivo, mouse. From the text:
(§6) Growth curve of MCA205 globin-SL8-intron cells and B16F10 WT cells inoculated at day 100 into the right and the left flank, respectively, of C57BL/6 mice which experienced complete tumor regression after treatment with Madra.HCl.
(§7) Finally, mice which were inoculated with MCA205 tumor cells expressing the Globin-intron-SL8 construct, and that experienced complete tumor regression after treatment with Madra.HCl as described above were re-challenged 100 days later with MCA205 tumor cells expressing the Globin-intron-SL8 construct on the right flank and with B16F10 tumor cells on the left flank.

The test system of a further data set is B16F10 WT cells. Nature of the data set: Re-challenge of tumor-free mice at day 100 with B16F10 WT cells. The data set is classed as in vivo, mouse. The following applies: mice with complete tumor regression after treatment, re-challenged 100 days later, left flank.
From the text: as §6, §7

On to `Cc1nc(Nc2nc(C)c3ccc(OP(=O)(O)O)cc3n2)[nH]c(=O)c1C` [EYP59, Sodium 2-((4,5-dimethyl-6-oxo-1,6-dihydropyrimidin-2-yl)amino)-4-methylquinazolin-7-yl Phosphate], for which the “reduction of tumor growth” value in [1] (20 mg/kg intraperitoneally, day 23 after challenge) worked out at 85%; in [4] (2.5 mg/kg intratumorally, day 21 after challenge) it was 75%; in data set [4] (5 mg/kg intravenously, day 25 after challenge), 80%; in data set [4] (20 mg/kg intraperitoneally, day 19 after challenge) it was 70%. The “PTP-SL8 presentation (B3Z T-cell activation)” value in data set [2] (MCA205, 60 μM, O/N) is on record as “increase”; in [3] (B16F10, 60 μM, O/N), “increase”. The “effect on the tumor growth” value in data set [5] is reported as “no effect”.
In the case of `COc1ccc2c(C)nc(Nc3nc(C)c(C)c(=O)[nH]3)nc2c1` [Madrasin, 2-((7-Methoxy-4-methylquinazolin-2-yl)amino)-5,6-dimethylpyrimidin-4(3H)-one], in “Solubility in water”, the solubility in water result is reported as “insoluble in water”. Besides, the “PTPs-dependent antigen presentation (B3Z T-cell activation)” value in data set [2] and in data set [3] was “increase” throughout.
As for `CC[C@H](O)[C@@H](C)[C@H]1O[C@@H]1C[C@@](C)(O)/C=C/C=C(\C)[C@H]1OC(=O)C[C@H](O)CC[C@@](C)(O)[C@@H](OC(=O)N2CCN(C3CCCCCC3)CC2)/C=C/[C@@H]1C` [E7107], the “outcome of testing in human” value on SF3B1 is recorded as “stopped because of problems of toxicity”.
On to `COc1ccc2c(C)nc(Nc3nc(C)c(C)c(=O)[nH]3)nc2c1.Cl` [Madra.HCl, Madrasin hydrochloride], for which the figures for the survivors entry in data set [1] (20 mg/kg intraperitoneally) and in data set [1] (40 mg/kg intraperitoneally) were “around 15%” and “around 25%”, respectively. Further, the “reduction of tumor growth” value came out at 50% in data set [1] (20 mg/kg intraperitoneally, day 27 after challenge); 40% in data set [4] (20 mg/kg intraperitoneally, day 21 after challenge); 40% in data set [4] (40 mg/kg intraperitoneally, day 21 after challenge). In “Solubility in water”, the solubility in water result is on record as “able to be dissolved in water”. In addition, the “tumor growth after re-challenge” value in data set [6] was “did not grow”; in the data set with B16F10 WT cells, “grew over time”. Also, the “PTPs-dependent antigen presentation (B3Z T-cell activation)” value in [2] and in [3] was “increase” each time.

These data come from patent publication US12213978B2, “Madrasin-derivative compounds, composition and uses thereof for treating cancer” (INSTITUT GUSTAVE ROUSSY, priority 2018, dated 2025).
